Test results from ChEMBL document CHEMBL4507277.

Columns and labels:
[1] = target: Phosphatidylinositol 5-phosphate 4-kinase type-2 gamma (Homo sapiens) (UniProt Q8TBX8); conditions: Compound concentration 1000.0 nM
[2] = target: Serine/threonine-protein kinase Sgk1 (Homo sapiens) (UniProt O00141); conditions: Compound concentration 1000.0 nM
[3] = target: Tyrosine-protein kinase ITK/TSK (Homo sapiens) (UniProt Q08881); conditions: Compound concentration 1000.0 nM
[4] = target: Cyclin-dependent kinase-like 3 (Homo sapiens) (UniProt Q8IVW4); conditions: Compound concentration 1000.0 nM
[5] = target: LIM domain kinase 1 (Homo sapiens) (UniProt P53667); conditions: Compound concentration 1000.0 nM
[6] = target: Ribosomal protein S6 kinase alpha-4 (Homo sapiens) (UniProt O75676); conditions: Compound concentration 1000.0 nM
[7] = target: Cyclin-dependent kinase 2 homolog (Plasmodium falciparum (isolate 3D7)) (UniProt P61075); conditions: Compound concentration 1000.0 nM
[8] = target: Ephrin type-B receptor 2 (Homo sapiens) (UniProt P29323); conditions: Compound concentration 1000.0 nM
[9] = target: Ephrin type-A receptor 7 (Homo sapiens) (UniProt Q15375); conditions: Compound concentration 1000.0 nM
[10] = target: TGF-beta receptor type-2 (Homo sapiens) (UniProt P37173); conditions: Compound concentration 1000.0 nM
[11] = target: Mitogen-activated protein kinase kinase kinase 7 (Homo sapiens) (UniProt O43318); conditions: Compound concentration 1000.0 nM
[12] = target: AP2-associated protein kinase 1 (Homo sapiens) (UniProt Q2M2I8); conditions: Compound concentration 1000.0 nM
[13] = target: Tyrosine-protein kinase JAK1 (Homo sapiens) (UniProt P23458); conditions: Compound concentration 1000.0 nM
[14] = target: Muscarinic acetylcholine receptor M4 (Homo sapiens) (UniProt P08173); conditions: Compound concentration 10.0 uM
[15] = target: LIM domain kinase 2 (Homo sapiens) (UniProt P53671); conditions: Compound concentration 1000.0 nM
[16] = target: Serine/threonine-protein kinase TBK1 (Homo sapiens) (UniProt Q9UHD2); conditions: Compound concentration 1000.0 nM
[17] = target: Serine/threonine-protein kinase ULK3 (Homo sapiens) (UniProt Q6PHR2); conditions: Compound concentration 1000.0 nM
[18] = target: Receptor-type tyrosine-protein kinase FLT3 (Homo sapiens) (UniProt P36888); conditions: Compound concentration 1000.0 nM
[19] = target: Calcium/calmodulin-dependent protein kinase type II subunit gamma (Homo sapiens) (UniProt Q13555); conditions: Compound concentration 1000.0 nM
[20] = target: Mast/stem cell growth factor receptor Kit (Homo sapiens) (UniProt P10721); conditions: Compound concentration 1000.0 nM
[21] = target: Mitogen-activated protein kinase kinase kinase 20 (Homo sapiens) (UniProt Q9NYL2); conditions: Compound concentration 1000.0 nM
[22] = target: Cyclin-dependent kinase 19 (Homo sapiens) (UniProt Q9BWU1); conditions: Compound concentration 1000.0 nM
[23] = target: Histamine H2 receptor (Homo sapiens) (UniProt P25021); conditions: Compound concentration 10.0 uM
[24] = target: Death-associated protein kinase 1 (Homo sapiens) (UniProt P53355); conditions: Compound concentration 1000.0 nM
[25] = target: Dual specificity mitogen-activated protein kinase kinase 6 (Homo sapiens) (UniProt P52564); conditions: Compound concentration 1000.0 nM
[26] = target: Serine/threonine-protein kinase Nek11 (Homo sapiens) (UniProt Q8NG66); conditions: Compound concentration 1000.0 nM
[27] = test system: Tyrosine-protein kinase ABL1 (Homo sapiens), P00519 [Y253F]; conditions: Compound concentration 1000.0 nM
[28] = target: Mitogen-activated protein kinase kinase kinase 3 (Homo sapiens) (UniProt Q99759); conditions: Compound concentration 1000.0 nM
[29] = target: Casein kinase I isoform alpha (Homo sapiens) (UniProt P48729); conditions: Compound concentration 1000.0 nM
[30] = target: Macrophage colony-stimulating factor 1 receptor (Homo sapiens) (UniProt P07333); conditions: Compound concentration 1000.0 nM
[31] = test system: Phosphatidylinositol 4,5-bisphosphate 3-kinase catalytic subunit alpha isoform (Homo sapiens), P42336 [E545A]; conditions: Compound concentration 1000.0 nM
[32] = target: Mitogen-activated protein kinase 3 (Homo sapiens) (UniProt P27361); conditions: Compound concentration 1000.0 nM
[33] = target: Phosphatidylinositol 4-phosphate 3-kinase C2 domain-containing subunit beta (Homo sapiens) (UniProt O00750); conditions: Compound concentration 1000.0 nM
[34] = target: Serine/threonine-protein kinase Nek9 (Homo sapiens) (UniProt Q8TD19); conditions: Compound concentration 1000.0 nM
[35] = target: Dual specificity protein kinase CLK2 (Homo sapiens) (UniProt P49760); conditions: Compound concentration 1000.0 nM
[36] = target: Casein kinase II subunit alpha' (Homo sapiens) (UniProt P19784); conditions: Compound concentration 1000.0 nM
[37] = target: Aurora kinase C (Homo sapiens) (UniProt Q9UQB9); conditions: Compound concentration 1000.0 nM
[38] = target: Ephrin type-A receptor 4 (Homo sapiens) (UniProt P54764); conditions: Compound concentration 1000.0 nM
[39] = target: Ribosomal protein S6 kinase alpha-2 (Homo sapiens) (UniProt Q15349); conditions: Compound concentration 1000.0 nM
[40] = target: SNF-related serine/threonine-protein kinase (Homo sapiens) (UniProt Q9NRH2); conditions: Compound concentration 1000.0 nM
[41] = target: 3-phosphoinositide-dependent protein kinase 1 (Homo sapiens) (UniProt O15530); conditions: Compound concentration 1000.0 nM
[42] = target: MAP kinase-interacting serine/threonine-protein kinase 2 (Homo sapiens) (UniProt Q9HBH9); conditions: Compound concentration 1000.0 nM
[43] = target: Proto-oncogene tyrosine-protein kinase ROS (Homo sapiens) (UniProt P08922); conditions: Compound concentration 1000.0 nM
[44] = target: Protein kinase C delta type (Homo sapiens) (UniProt Q05655); conditions: Compound concentration 1000.0 nM
[45] = target: TGF-beta receptor type-1 (Homo sapiens) (UniProt P36897); conditions: Compound concentration 1000.0 nM

MAP kinase-interacting serine/threonine-protein kinase 2 (Homo sapiens), sequence (Q9HBH9 whole entry, looked up): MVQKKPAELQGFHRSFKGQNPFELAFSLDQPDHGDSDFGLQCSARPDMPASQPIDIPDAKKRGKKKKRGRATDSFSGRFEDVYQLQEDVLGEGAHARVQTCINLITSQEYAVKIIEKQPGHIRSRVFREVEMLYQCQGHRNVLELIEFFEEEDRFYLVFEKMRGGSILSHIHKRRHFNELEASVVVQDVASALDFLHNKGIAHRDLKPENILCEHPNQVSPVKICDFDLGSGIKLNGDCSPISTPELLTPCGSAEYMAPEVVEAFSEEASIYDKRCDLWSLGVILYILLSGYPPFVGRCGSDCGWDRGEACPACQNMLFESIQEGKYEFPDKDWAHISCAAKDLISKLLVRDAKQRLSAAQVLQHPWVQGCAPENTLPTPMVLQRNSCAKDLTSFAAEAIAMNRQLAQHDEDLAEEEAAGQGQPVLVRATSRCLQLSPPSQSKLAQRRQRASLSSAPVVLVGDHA
Ephrin type-B receptor 2 (Homo sapiens), sequence (P29323 whole entry): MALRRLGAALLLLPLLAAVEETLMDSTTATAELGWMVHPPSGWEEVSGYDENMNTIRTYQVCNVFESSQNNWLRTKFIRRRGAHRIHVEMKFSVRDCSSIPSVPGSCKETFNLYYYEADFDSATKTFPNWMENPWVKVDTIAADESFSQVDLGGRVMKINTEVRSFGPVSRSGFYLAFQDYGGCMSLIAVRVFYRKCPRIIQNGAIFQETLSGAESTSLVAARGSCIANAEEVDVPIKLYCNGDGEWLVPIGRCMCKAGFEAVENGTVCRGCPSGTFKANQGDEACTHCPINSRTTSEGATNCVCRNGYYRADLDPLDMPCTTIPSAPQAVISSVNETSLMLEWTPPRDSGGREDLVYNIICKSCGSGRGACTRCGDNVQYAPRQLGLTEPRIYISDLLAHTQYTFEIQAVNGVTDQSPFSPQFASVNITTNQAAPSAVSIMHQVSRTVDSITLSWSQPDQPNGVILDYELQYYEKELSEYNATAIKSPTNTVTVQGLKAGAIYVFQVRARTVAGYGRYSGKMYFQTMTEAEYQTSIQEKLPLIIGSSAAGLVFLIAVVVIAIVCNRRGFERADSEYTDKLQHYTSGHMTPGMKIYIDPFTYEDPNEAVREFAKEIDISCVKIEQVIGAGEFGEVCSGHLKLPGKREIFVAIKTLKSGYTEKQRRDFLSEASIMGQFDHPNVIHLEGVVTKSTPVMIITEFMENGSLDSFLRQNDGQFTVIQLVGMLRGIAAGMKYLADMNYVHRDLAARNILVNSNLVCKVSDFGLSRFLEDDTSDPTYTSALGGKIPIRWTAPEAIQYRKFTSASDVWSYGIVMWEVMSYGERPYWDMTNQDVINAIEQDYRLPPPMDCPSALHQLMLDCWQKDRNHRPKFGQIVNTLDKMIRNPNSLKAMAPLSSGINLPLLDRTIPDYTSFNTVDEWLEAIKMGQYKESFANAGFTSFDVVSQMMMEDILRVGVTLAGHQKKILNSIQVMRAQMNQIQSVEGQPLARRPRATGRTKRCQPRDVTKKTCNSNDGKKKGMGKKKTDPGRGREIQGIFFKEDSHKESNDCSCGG
Phosphatidylinositol 4,5-bisphosphate 3-kinase catalytic subunit alpha isoform (Homo sapiens), P42336 [E545A], sequence (P42336 whole entry E545A, canonical isoform): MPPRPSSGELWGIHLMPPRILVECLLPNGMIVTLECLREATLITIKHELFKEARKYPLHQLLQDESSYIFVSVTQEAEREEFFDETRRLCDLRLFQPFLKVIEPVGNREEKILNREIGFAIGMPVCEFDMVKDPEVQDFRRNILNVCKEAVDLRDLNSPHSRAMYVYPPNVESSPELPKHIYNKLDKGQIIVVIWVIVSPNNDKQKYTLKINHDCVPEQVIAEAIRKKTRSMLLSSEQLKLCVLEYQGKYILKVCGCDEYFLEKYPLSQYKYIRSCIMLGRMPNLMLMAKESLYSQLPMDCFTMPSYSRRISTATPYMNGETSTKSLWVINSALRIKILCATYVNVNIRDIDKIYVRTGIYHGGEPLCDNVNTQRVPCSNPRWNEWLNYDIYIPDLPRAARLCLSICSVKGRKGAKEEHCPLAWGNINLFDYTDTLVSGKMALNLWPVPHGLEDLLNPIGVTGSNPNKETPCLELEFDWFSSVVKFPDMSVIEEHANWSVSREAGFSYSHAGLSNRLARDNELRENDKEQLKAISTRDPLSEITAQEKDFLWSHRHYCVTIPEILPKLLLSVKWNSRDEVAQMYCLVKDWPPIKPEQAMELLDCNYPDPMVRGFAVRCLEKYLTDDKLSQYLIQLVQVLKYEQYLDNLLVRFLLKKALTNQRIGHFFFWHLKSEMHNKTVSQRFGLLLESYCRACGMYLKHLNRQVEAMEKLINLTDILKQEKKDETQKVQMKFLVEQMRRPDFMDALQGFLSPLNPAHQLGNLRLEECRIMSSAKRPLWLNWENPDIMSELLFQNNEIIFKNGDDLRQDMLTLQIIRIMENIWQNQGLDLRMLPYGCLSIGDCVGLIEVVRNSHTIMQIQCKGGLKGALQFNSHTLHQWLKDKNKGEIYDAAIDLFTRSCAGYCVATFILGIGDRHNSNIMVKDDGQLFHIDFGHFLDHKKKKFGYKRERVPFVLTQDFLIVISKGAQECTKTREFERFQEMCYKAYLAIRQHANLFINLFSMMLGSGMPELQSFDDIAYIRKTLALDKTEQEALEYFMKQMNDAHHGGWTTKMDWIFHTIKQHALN
Ephrin type-A receptor 4 (Homo sapiens), sequence (P54764 whole entry): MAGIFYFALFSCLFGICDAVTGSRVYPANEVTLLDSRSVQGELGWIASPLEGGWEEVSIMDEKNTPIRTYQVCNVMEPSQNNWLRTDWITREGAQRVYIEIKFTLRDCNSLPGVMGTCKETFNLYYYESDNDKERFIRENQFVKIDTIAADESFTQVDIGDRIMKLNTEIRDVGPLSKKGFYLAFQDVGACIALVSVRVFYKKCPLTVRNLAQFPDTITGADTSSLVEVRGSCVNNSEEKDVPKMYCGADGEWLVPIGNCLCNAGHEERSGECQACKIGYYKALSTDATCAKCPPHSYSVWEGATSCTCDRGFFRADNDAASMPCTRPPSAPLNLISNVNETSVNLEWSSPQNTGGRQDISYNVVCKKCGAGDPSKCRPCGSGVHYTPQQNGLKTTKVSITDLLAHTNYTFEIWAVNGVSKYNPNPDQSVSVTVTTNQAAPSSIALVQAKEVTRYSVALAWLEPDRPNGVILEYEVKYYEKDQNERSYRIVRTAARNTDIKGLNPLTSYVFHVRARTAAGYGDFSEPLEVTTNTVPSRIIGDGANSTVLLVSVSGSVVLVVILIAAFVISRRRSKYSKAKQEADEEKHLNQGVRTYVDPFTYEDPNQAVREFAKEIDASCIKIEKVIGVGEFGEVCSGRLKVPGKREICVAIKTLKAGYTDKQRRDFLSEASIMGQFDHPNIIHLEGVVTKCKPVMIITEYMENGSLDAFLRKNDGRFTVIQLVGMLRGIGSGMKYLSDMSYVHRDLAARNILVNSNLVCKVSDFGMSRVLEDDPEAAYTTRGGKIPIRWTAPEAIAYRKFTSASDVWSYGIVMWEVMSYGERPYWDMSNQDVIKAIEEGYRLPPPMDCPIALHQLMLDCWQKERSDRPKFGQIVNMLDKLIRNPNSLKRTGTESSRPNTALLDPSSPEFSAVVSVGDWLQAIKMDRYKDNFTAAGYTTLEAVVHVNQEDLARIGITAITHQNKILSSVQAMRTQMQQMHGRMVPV
Mitogen-activated protein kinase kinase kinase 3 (Homo sapiens), sequence (Q99759 whole entry, canonical isoform): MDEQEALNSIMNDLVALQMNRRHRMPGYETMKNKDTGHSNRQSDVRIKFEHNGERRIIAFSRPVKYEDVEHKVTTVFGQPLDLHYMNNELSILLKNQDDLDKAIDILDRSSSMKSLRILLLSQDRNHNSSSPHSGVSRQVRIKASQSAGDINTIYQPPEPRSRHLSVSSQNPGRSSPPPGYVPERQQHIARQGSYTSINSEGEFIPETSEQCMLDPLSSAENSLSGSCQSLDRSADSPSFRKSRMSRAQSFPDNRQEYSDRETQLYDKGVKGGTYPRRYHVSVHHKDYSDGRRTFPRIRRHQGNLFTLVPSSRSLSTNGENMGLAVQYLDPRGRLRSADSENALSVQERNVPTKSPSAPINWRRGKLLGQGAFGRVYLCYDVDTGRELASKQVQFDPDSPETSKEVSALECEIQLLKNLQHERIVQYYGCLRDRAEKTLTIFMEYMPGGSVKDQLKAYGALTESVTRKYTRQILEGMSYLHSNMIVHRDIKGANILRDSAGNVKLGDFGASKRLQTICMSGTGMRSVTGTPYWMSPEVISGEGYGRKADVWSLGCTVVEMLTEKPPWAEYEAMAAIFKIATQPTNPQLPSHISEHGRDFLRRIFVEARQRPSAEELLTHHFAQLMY
Casein kinase II subunit alpha' (Homo sapiens), sequence (P19784 whole entry, looked up): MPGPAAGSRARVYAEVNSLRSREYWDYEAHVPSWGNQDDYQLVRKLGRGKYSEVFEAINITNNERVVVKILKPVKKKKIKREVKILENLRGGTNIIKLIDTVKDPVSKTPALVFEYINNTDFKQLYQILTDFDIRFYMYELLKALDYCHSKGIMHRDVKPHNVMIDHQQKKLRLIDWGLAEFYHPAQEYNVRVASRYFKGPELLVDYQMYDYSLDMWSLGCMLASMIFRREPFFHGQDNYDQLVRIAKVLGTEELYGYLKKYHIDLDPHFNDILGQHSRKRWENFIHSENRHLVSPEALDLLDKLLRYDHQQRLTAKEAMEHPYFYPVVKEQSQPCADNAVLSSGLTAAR
Dual specificity mitogen-activated protein kinase kinase 6 (Homo sapiens), sequence (P52564 whole entry): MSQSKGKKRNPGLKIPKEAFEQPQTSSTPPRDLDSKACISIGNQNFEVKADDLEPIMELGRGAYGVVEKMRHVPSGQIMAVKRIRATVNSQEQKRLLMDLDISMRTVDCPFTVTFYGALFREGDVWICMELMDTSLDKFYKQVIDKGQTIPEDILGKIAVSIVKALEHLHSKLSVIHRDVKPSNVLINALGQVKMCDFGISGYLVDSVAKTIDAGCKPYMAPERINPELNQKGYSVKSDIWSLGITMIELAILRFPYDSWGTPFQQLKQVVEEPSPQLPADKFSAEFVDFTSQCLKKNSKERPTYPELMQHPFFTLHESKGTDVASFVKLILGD

Molecule `CCS(=O)(=O)c1cc2cc(C[C@](O)(CC(C)(C)c3ccc(F)cc3C(N)=O)C(F)(F)F)[nH]c2cn1` has a residual activity [1] of 100%, a residual activity [2] of 100% and a residual activity [3] of 100%. The residual activity [4] was 100%, the residual activity [5] was 100% and the residual activity [6] was 98%. The residual activity [7] was 100%, the residual activity [8] was 100% and the residual activity [9] was 86%. The residual activity [10] was 100%, the residual activity [11] was 100% and the residual activity [12] was 100%. The residual activity [13] was 95%, the inhibition [14] was 13.1% and the residual activity [15] was 100%. For the same molecule, the residual activity [16] was 93%, the residual activity [17] was 100% and the residual activity [18] was 87%. The residual activity [19] was 100%, the residual activity [20] was 89% and the residual activity [21] was 87%. It also gave a residual activity [22] of 100%, an inhibition [23] of 12.3% and a residual activity [24] of 92%. The residual activity [25] was 80%, the residual activity [26] was 93% and the residual activity [27] was 93%. The residual activity [28] was 92%, the residual activity [29] was 100% and the residual activity [30] was 100%. It also gave a residual activity [31] of 100%, a residual activity [32] of 93% and a residual activity [33] of 89%. The residual activity [34] was 99%, the residual activity [35] was 100% and the residual activity [36] was 92%. It also gave a residual activity [37] of 91%, a residual activity [38] of 100% and a residual activity [39] of 81%. The residual activity [40] was 100%, the residual activity [41] was 100% and the residual activity [42] was 100%. The residual activity [43] was 100%, the residual activity [44] was 100% and the residual activity [45] was 100%.
`CCS(=O)(=O)c1cc2cc(C[C@@](O)(CC(C)(C)c3ccc(F)cc3C(N)=O)C(F)(F)F)[nH]c2cn1` was tested, and the residual activity [1] was 100%, the residual activity [2] was 79% and the residual activity [3] was 96%. For the same molecule, the residual activity [4] was 90%, the residual activity [5] was 100% and the residual activity [6] was 78%. It also gave a residual activity [7] of 100%, a residual activity [8] of 95% and a residual activity [9] of 94%. For the same molecule, the residual activity [10] was 100%, the residual activity [11] was 92% and the residual activity [12] was 100%. It also gave a residual activity [13] of 90%, an inhibition [14] of 18.2% and a residual activity [15] of 100%. It also gave a residual activity [16] of 87%, a residual activity [17] of 98% and a residual activity [18] of 97%. It also gave a residual activity [19] of 77%, a residual activity [20] of 100% and a residual activity [21] of 100%. The residual activity [22] was 100%, the inhibition [23] was 6.84% and the residual activity [24] was 0%. The residual activity [25] was 84%, the residual activity [26] was 100% and the residual activity [27] was 72%. For the same molecule, the residual activity [28] was 90%, the residual activity [29] was 86% and the residual activity [30] was 94%. It also gave a residual activity [31] of 99%, a residual activity [32] of 98% and a residual activity [33] of 86%. For the same molecule, the residual activity [34] was 83%, the residual activity [35] was 100% and the residual activity [36] was 83%. It also gave a residual activity [37] of 81%, a residual activity [38] of 95% and a residual activity [39] of 0%. The residual activity [40] was 98%, the residual activity [41] was 100% and the residual activity [42] was 87%. It also gave a residual activity [43] of 90%, a residual activity [44] of 99% and a residual activity [45] of 100%.
